Experimental data as given in patent publication US20250179078A1, “INHIBITORS OF NLRP3” (PTC THERAPEUTICS, INC., priority 2022, published 2025).

Biological target: T1, NLRP3 (Homo sapiens, UniProt Q96P20)
T1 construct: host or cells: THP-1 cells differentiated with PMA
Test: IL-1β Secretion Assay (NLRP3-dependent IL1β secretion in THP1 cells)
Format: cell-based
Settings: PMA-differentiated THP-1 cells; compounds incubated 20 h; 2.5 μM Nigericin 3 h; HTRF IL-1β readout; read-out: IC50 IL-1β Inhibition
Outline: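 IL-1β in conditioned media, measured by HTRF after 3 h 2.5 μM nigericin stimulation, gave % inhibition fitted logistically for IC50. Before that, PMA-differentiated (100 ng/mL, 24 h) THP-1 cells were preincubated 20 h with 7 compound concentrations (3-fold serial, DMSO 1:200).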

T1 sequence (Q96P20 whole entry): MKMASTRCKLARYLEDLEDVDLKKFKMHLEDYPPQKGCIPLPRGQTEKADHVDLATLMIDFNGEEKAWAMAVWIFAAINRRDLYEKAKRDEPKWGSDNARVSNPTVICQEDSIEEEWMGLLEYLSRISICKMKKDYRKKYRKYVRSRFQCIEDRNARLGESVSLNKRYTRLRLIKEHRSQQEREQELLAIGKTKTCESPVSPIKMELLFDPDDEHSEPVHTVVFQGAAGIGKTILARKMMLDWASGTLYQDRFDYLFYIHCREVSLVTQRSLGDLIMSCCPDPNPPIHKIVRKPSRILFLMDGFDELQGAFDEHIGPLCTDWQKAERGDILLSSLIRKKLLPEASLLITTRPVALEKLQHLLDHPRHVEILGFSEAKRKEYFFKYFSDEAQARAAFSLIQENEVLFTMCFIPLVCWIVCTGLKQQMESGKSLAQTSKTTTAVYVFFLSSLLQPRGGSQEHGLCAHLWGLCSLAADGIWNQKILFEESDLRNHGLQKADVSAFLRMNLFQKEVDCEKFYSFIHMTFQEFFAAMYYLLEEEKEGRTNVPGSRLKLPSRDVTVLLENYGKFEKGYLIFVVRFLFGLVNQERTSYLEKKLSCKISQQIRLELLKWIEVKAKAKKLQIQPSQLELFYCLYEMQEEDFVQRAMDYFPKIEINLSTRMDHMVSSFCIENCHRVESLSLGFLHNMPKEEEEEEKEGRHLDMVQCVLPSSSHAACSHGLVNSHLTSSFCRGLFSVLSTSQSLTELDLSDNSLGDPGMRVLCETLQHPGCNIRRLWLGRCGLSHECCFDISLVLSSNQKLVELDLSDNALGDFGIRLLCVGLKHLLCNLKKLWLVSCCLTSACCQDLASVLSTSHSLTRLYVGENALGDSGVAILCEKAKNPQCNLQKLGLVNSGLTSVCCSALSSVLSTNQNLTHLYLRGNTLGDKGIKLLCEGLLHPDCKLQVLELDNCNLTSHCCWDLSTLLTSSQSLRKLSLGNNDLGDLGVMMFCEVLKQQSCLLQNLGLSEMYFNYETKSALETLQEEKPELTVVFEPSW

IC50	Compound
0.001 to 0.01 µM	COc1ccc(-c2nnc(N[C@@H]3C[C@@H](F)CN(C)C3)n3ccc(F)c23)c(OC(F)(F)F)c1 [Compound 52, 8-fluoro-N-[(3R,5R)-5-fluoro-1-methylpiperidin-3-yl]-1-[4-methoxy-2-(trifluoromethoxy)phenyl]pyrrolo[1,2-d][1,2,4]triazin-4-amine]
0.001 to 0.01 µM	Cc1ccc(-c2nnc(N[C@H]3C[C@@](C)(O)C3)n3cncc23)c(CC(F)(F)F)c1 [Compound 318, (1s,3s)-1-methyl-3-({1-[4-methyl-2-(2,2,2-trifluoroethyl)phenyl]imidazo[1,5-d][1,2,4]triazin-4-yl}amino)cyclobutan-1-ol]
0.001 to 0.01 µM	COc1ccc(-c2nnc(N[C@@H]3CCC[C@H](O)C3)n3cncc23)c(OC(F)(F)F)c1 [Compound 222, (1S,3R)-3-({1-[4-methoxy-2-(trifluoromethoxy)phenyl]imidazo[1,5-d][1,2,4]triazin-4-yl}amino)cyclohexan-1-ol]
0.01 to 0.1 µM	C[C@]1(O)C[C@@H](Nc2nnc(-c3ccc(C(F)(F)F)cc3C(F)(F)F)c3c(F)ccn23)C1 [Compound 38, (1s,3s)-3-({1-[2,4-bis(trifluoromethyl)phenyl]-8-fluoropyrrolo[1,2-d][1,2,4]triazin-4-yl}amino)-1-methylcyclobutan-1-ol]
0.001 to 0.01 µM	C[C@]1(O)CCCC[C@@H]1Nc1nnc(-c2ccc(C(F)(F)F)cc2CC(F)(F)F)c2cncn12 (racemic) [Compound 283, (1S,2S)-1-methyl-2-({1-[2-(2,2,2-trifluoroethyl)-4-(trifluoromethyl)phenyl]imidazo[1,5-d][1,2,4]triazin-4-yl}amino)cyclohexan-1-ol AND (1R,2R)-1-methyl-2-({1-[2-(2,2,2-trifluoroethyl)-4-(trifluoromethyl)phenyl]imidazo[1,5-d][1,2,4]triazin-4-yl}amino)cyclohexan-1-ol]
≥ 0.3 µM	COc1ccc(-c2nnc(N[C@@H]3CCCC[C@@]3(C)O)n3cccc23)c(OC(F)(F)F)c1 (single isomer, unassigned) [Compound 181]
< 0.001 µM	O[C@H]1CCC[C@@H](Nc2nnc(-c3ccc(C(F)(F)F)cc3CC(F)(F)F)c3cncn23)C1 [Compound 262, (1S,3R)-3-({1-[2-(2,2,2-trifluoroethyl)-4-(trifluoromethyl)phenyl]imidazo[1,5-d][1,2,4]triazin-4-yl}amino)cyclohexan-1-ol]
0.001 to 0.01 µM	COc1ccc(-c2nnc(NC(C)c3cccc(O)c3)n3ccc(F)c23)c(C(F)(F)F)c1 (centres unmarked) [Compound 149, 3-[1-({8-fluoro-1-[4-methoxy-2-(trifluoromethyl)phenyl]pyrrolo[1,2-d][1,2,4]triazin-4-yl}amino)ethyl]phenol]
0.001 to 0.01 µM	Cc1cc2c(-c3ccc(C(F)(F)F)cc3CC(F)(F)F)nnc(N[C@@H]3CCCC[C@H]3O)n2n1 [Compound 389, (1R,2R)-2-({2-methyl-4-[2-(2,2,2-trifluoroethyl)-4-(trifluoromethyl)phenyl]pyrazolo[1,5-d][1,2,4]triazin-7-yl}amino)cyclohexan-1-ol]
< 0.001 µM	C[C@]1(O)C[C@@H](Nc2nnc(-c3ccc(C(F)(F)F)cc3CC(F)(F)F)c3cncn23)C1 [Compound 263, (1s,3s)-1-methyl-3-({1-[2-(2,2,2-trifluoroethyl)-4-(trifluoromethyl)phenyl]imidazo[1,5-d][1,2,4]triazin-4-yl}amino)cyclobutan-1-ol]
0.001 to 0.01 µM	CN1C[C@@H](O)C[C@@H](Nc2nnc(-c3ccc(C(F)(F)F)cc3OC(F)F)c3cccn23)C1 [Compound 98, (3S,5R)-5-({1-[2-(difluoromethoxy)-4-(trifluoromethyl)phenyl]pyrrolo[1,2-d][1,2,4]triazin-4-yl}amino)-1-methylpiperidin-3-ol]
0.001 to 0.01 µM	C[C@]1(O)C[C@@H](Nc2nnc(-c3ccc(C4CC4)cc3OC(F)(F)F)c3cncn23)C1 [Compound 346, (1s,3s)-3-({1-[4-cyclopropyl-2-(trifluoromethoxy)phenyl]imidazo[1,5-d][1,2,4]triazin-4-yl}amino)-1-methylcyclobutan-1-ol]
0.001 to 0.01 µM	COc1ccc(-c2nnc(N[C@@H]3C[C@@H](F)CN(C)C3)n3cncc23)c(OC(F)(F)F)c1 [Compound 210, N-[(3R,5R)-5-fluoro-1-methylpiperidin-3-yl]-1-[4-methoxy-2-(trifluoromethoxy)phenyl]imidazo[1,5-d][1,2,4]triazin-4-amine]
0.01 to 0.1 µM	COc1ccc(-c2nnc(NCc3ncnn3C)n3cccc23)c(OC(F)(F)F)c1 [Compound 93, 1-[4-methoxy-2-(trifluoromethoxy)phenyl]-N-[(1-methyl-1H-1,2,4-triazol-5-yl)methyl]pyrrolo[1,2-d][1,2,4]triazin-4-amine]
< 0.001 µM	CCN1CCC[C@@H](Nc2nnc(-c3ccc(OC)cc3OC(F)(F)F)c3cccn23)C1 [Compound 59]
0.1 to 0.3 µM	COc1ccc(-c2nnc(NC(C)c3cccnc3)n3cncc23)c(OC(F)(F)F)c1 (centres unmarked) [Compound 232, 1-[4-methoxy-2-(trifluoromethoxy)phenyl]-N-[1-(pyridin-3-yl)ethyl]imidazo[1,5-d][1,2,4]triazin-4-amine]
< 0.001 µM	Cc1cc2c(-c3ccc(Cl)cc3OC(F)F)nnc(N[C@@H]3CCCN(C)C3)n2n1 [Compound 358, 4-[4-chloro-2-(difluoromethoxy)phenyl]-2-methyl-N-[(3R)-1-methylpiperidin-3-yl]pyrazolo[1,5-d][1,2,4]triazin-7-amine]
0.001 to 0.01 µM	Cc1ccc(-c2nnc(N[C@@H]3CCCC[C@@H]3O)n3cccc23)c(OC(F)F)c1 [Compound 137, (1S,2R)-2-({1-[2-(difluoromethoxy)-4-methylphenyl]pyrrolo[1,2-d][1,2,4]triazin-4-yl}amino)cyclohexan-1-ol]
0.001 to 0.01 µM	O=C1NCCC1Nc1nnc(-c2ccc(OC(F)F)cc2OC(F)(F)F)c2cccn12 (centres unmarked) [Compound 154, 3-({1-[4-(difluoromethoxy)-2-(trifluoromethoxy)phenyl]pyrrolo[1,2-d][1,2,4]triazin-4-yl}amino)pyrrolidin-2-one]
< 0.001 µM	CCN1CCC[C@@H](Nc2nnc(-c3ccc(Br)cc3OC(F)(F)F)c3cc(C)nn23)C1 [Compound 357, 4-[4-bromo-2-(trifluoromethoxy)phenyl]-N-[(3R)-1-ethylpiperidin-3-yl]-2-methylpyrazolo[1,5-d][1,2,4]triazin-7-amine]
0.01 to 0.1 µM	CN1CCCC(Nc2nnc(-c3ccc(OC(F)F)cc3OC(F)(F)F)c3cncn23)C1=O (centres unmarked) [Compound 328, 3-({1-[4-(difluoromethoxy)-2-(trifluoromethoxy)phenyl]imidazo[1,5-d][1,2,4]triazin-4-yl}amino)-1-methylpiperidin-2-one]
0.001 to 0.01 µM	Cc1ccc(-c2nnc(N[C@@H]3CCCN(C)C3)n3nc(C)cc23)c(OC(F)F)c1 [Compound 361, 4-[2-(difluoromethoxy)-4-methylphenyl]-2-methyl-N-[(3R)-1-methylpiperidin-3-yl]pyrazolo[1,5-d][1,2,4]triazin-7-amine]
0.01 to 0.1 µM	COc1ccc(-c2nnc(NCc3cc[nH]n3)n3cncc23)c(OC(F)(F)F)c1 [Compound 234, 1-[4-methoxy-2-(trifluoromethoxy)phenyl]-N-[(1H-pyrazol-3-yl)methyl]imidazo[1,5-d][1,2,4]triazin-4-amine]
